# Reference: PubChem BioAssay (NCI)
#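 48-hour exposure; five concentrations; linearly interpolated endpoints. GI50: concentration for 50% inhibition of growth. At the TGI there is no net growth.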
# What was measured:
# Assay in all cases: NCI anticancer screen, dose series, 48 h
# 786-0 renal = system: 786-0 renal
# A498 renal = system: A498 renal
# A549 NSCLC = system: A549 NSCLC
# ACHN renal = system: ACHN renal
# BT-549 breast = system: BT-549 breast
# CAKI-1 renal = system: CAKI-1 renal
# CCRF-CEM leukemia = system: CCRF-CEM leukemia
# COLO 205 colon = system: COLO 205 colon
# DU-145 prostate = system: DU-145 prostate
# EKVX NSCLC = system: EKVX NSCLC
# HCC-2998 colon = system: HCC-2998 colon
# HCT-116 colon = system: HCT-116 colon
# HCT-15 colon = system: HCT-15 colon
# HL-60(TB) leukemia = system: HL-60(TB) leukemia
# HOP-62 NSCLC = system: HOP-62 NSCLC
# HOP-92 NSCLC = system: HOP-92 NSCLC
# HS 578T breast = system: HS 578T breast
# HT29 colon = system: HT29 colon
# IGROV1 ovarian = system: IGROV1 ovarian
# K-562 leukemia = system: K-562 leukemia
# KM12 colon = system: KM12 colon
# LOX IMVI melanoma = system: LOX IMVI melanoma
# M14 melanoma = system: M14 melanoma
# MALME-3M melanoma = system: MALME-3M melanoma
# MCF7 breast = system: MCF7 breast
# MDA-MB-231 breast = system: MDA-MB-231 breast
# MDA-MB-435 = system: MDA-MB-435
# MOLT-4 leukemia = system: MOLT-4 leukemia
# NCI-H226 lung = system: NCI-H226 lung
# NCI-H23 lung = system: NCI-H23 lung
# NCI-H460 lung = system: NCI-H460 lung
# NCI-H522 lung = system: NCI-H522 lung
# NCI/ADR-RES ovarian = system: NCI/ADR-RES ovarian
# OVCAR-3 ovarian = system: OVCAR-3 ovarian
# OVCAR-4 ovarian = system: OVCAR-4 ovarian
# OVCAR-5 ovarian = system: OVCAR-5 ovarian
# OVCAR-8 ovarian = system: OVCAR-8 ovarian
# PC-3 prostate = system: PC-3 prostate
# RPMI-8226 leukemia = system: RPMI-8226 leukemia
# RXF 393 renal = system: RXF 393 renal
# SF-268 CNS = system: SF-268 CNS
# SF-295 CNS = system: SF-295 CNS
# SF-539 CNS = system: SF-539 CNS
# SK-MEL-2 melanoma = system: SK-MEL-2 melanoma
# SK-MEL-28 melanoma = system: SK-MEL-28 melanoma
# SK-MEL-5 melanoma = system: SK-MEL-5 melanoma
# SK-OV-3 ovarian = system: SK-OV-3 ovarian
# SN12C renal = system: SN12C renal
# SNB-19 CNS = system: SNB-19 CNS
# SNB-75 CNS = system: SNB-75 CNS
# SR leukemia = system: SR leukemia
# SW-620 colon = system: SW-620 colon
# T-47D breast = system: T-47D breast
# TK-10 renal = system: TK-10 renal
# U251 CNS = system: U251 CNS
# UACC-257 melanoma = system: UACC-257 melanoma
# UACC-62 melanoma = system: UACC-62 melanoma
# UO-31 renal = system: UO-31 renal
smiles,measurement,setting,value
O=C(CSc1nc2ccc([N+](=O)[O-])cc2[nH]1)Nc1cccc(C(F)(F)F)c1,GI50,786-0 renal,2.98 µM
same,TGI,786-0 renal,13.1 µM
same,GI50,A498 renal,0.963 µM
same,TGI,A498 renal,3.52 µM
same,GI50,A549 NSCLC,2.3 µM
same,TGI,A549 NSCLC,12.7 µM
same,GI50,ACHN renal,2.42 µM
same,TGI,ACHN renal,8.21 µM
same,GI50,BT-549 breast,2.63 µM
same,TGI,BT-549 breast,11.6 µM
same,GI50,CAKI-1 renal,1.76 µM
same,TGI,CAKI-1 renal,7.15 µM
same,GI50,CCRF-CEM leukemia,2.58 µM
same,TGI,CCRF-CEM leukemia,> 60.1 µM
same,GI50,COLO 205 colon,1.71 µM
same,TGI,COLO 205 colon,3.47 µM
same,GI50,DU-145 prostate,3.54 µM
same,TGI,DU-145 prostate,15 µM
same,GI50,EKVX NSCLC,1.84 µM
same,TGI,EKVX NSCLC,9.94 µM
same,GI50,HCC-2998 colon,2.8 µM
same,TGI,HCC-2998 colon,12.2 µM
same,GI50,HCT-116 colon,2.69 µM
same,TGI,HCT-116 colon,12.1 µM
same,GI50,HCT-15 colon,2.74 µM
same,TGI,HCT-15 colon,12.7 µM
same,GI50,HL-60(TB) leukemia,2.57 µM
same,TGI,HL-60(TB) leukemia,8.33 µM
same,GI50,HOP-62 NSCLC,2.56 µM
same,TGI,HOP-62 NSCLC,10.8 µM
same,GI50,HOP-92 NSCLC,0.3 µM
same,TGI,HOP-92 NSCLC,2.82 µM
same,GI50,HS 578T breast,2.45 µM
same,TGI,HS 578T breast,10.7 µM
same,GI50,HT29 colon,2.78 µM
same,TGI,HT29 colon,11.3 µM
same,GI50,IGROV1 ovarian,2.87 µM
same,TGI,IGROV1 ovarian,14.7 µM
same,GI50,K-562 leukemia,2.16 µM
same,TGI,K-562 leukemia,> 39.8 µM
same,GI50,KM12 colon,2.2 µM
same,TGI,KM12 colon,8.08 µM
same,GI50,LOX IMVI melanoma,2.95 µM
same,TGI,LOX IMVI melanoma,13 µM
same,GI50,M14 melanoma,3.17 µM
same,TGI,M14 melanoma,14.9 µM
same,GI50,MALME-3M melanoma,1.48 µM
same,TGI,MALME-3M melanoma,6.66 µM
same,GI50,MCF7 breast,1.95 µM
same,TGI,MCF7 breast,9.44 µM
same,GI50,MDA-MB-231 breast,2.13 µM
same,TGI,MDA-MB-231 breast,6.65 µM
same,GI50,MDA-MB-435,2.5 µM
same,TGI,MDA-MB-435,12.8 µM
same,GI50,MOLT-4 leukemia,2.71 µM
same,TGI,MOLT-4 leukemia,19.5 µM
same,GI50,NCI-H226 lung,1.69 µM
same,TGI,NCI-H226 lung,9.27 µM
same,GI50,NCI-H23 lung,1.98 µM
same,TGI,NCI-H23 lung,8.81 µM
same,GI50,NCI-H460 lung,2.88 µM
same,TGI,NCI-H460 lung,11.3 µM
same,GI50,NCI-H522 lung,1.55 µM
same,TGI,NCI-H522 lung,9.05 µM
same,GI50,NCI/ADR-RES ovarian,2.29 µM
same,TGI,NCI/ADR-RES ovarian,8.75 µM
same,GI50,OVCAR-3 ovarian,1.66 µM
same,TGI,OVCAR-3 ovarian,11 µM
same,GI50,OVCAR-4 ovarian,1.61 µM
same,TGI,OVCAR-4 ovarian,14.5 µM
same,GI50,OVCAR-5 ovarian,2.62 µM
same,TGI,OVCAR-5 ovarian,11.1 µM
same,GI50,OVCAR-8 ovarian,2.93 µM
same,TGI,OVCAR-8 ovarian,15.8 µM
same,GI50,PC-3 prostate,2.47 µM
same,TGI,PC-3 prostate,11.9 µM
same,GI50,RPMI-8226 leukemia,1.37 µM
same,TGI,RPMI-8226 leukemia,> 23.6 µM
same,GI50,RXF 393 renal,2 µM
same,TGI,RXF 393 renal,8.02 µM
same,GI50,SF-268 CNS,2.73 µM
same,TGI,SF-268 CNS,13.9 µM
same,GI50,SF-295 CNS,1.73 µM
same,TGI,SF-295 CNS,5.65 µM
same,GI50,SF-539 CNS,2.9 µM
same,TGI,SF-539 CNS,11.7 µM
same,GI50,SK-MEL-2 melanoma,1.96 µM
same,TGI,SK-MEL-2 melanoma,5.99 µM
same,GI50,SK-MEL-28 melanoma,2.34 µM
same,TGI,SK-MEL-28 melanoma,13.5 µM
same,GI50,SK-MEL-5 melanoma,1.03 µM
same,TGI,SK-MEL-5 melanoma,2.57 µM
same,GI50,SK-OV-3 ovarian,1.66 µM
same,TGI,SK-OV-3 ovarian,5.86 µM
same,GI50,SN12C renal,2.18 µM
same,TGI,SN12C renal,10.6 µM
same,GI50,SNB-19 CNS,2.71 µM
same,TGI,SNB-19 CNS,12.7 µM
same,GI50,SNB-75 CNS,1.61 µM
same,TGI,SNB-75 CNS,7.81 µM
same,GI50,SR leukemia,3.02 µM
same,TGI,SR leukemia,> 43.7 µM
same,GI50,SW-620 colon,3.13 µM
same,TGI,SW-620 colon,14.6 µM
same,GI50,T-47D breast,1.14 µM
same,TGI,T-47D breast,11.8 µM
same,GI50,TK-10 renal,3.14 µM
same,TGI,TK-10 renal,10.9 µM
same,GI50,U251 CNS,2.28 µM
same,TGI,U251 CNS,12.2 µM
same,GI50,UACC-257 melanoma,1.33 µM
same,TGI,UACC-257 melanoma,6.63 µM
same,GI50,UACC-62 melanoma,1.1 µM
same,TGI,UACC-62 melanoma,8.85 µM
same,GI50,UO-31 renal,1.81 µM
same,TGI,UO-31 renal,8.9 µM
